The values below come from paper PMC11372076, “A dual inhibitor of PIP5K1C and PIKfyve prevents SARS-CoV-2 entry into cells” (Experimental & Molecular Medicine, 2024).

In one test the test system is cathepsin L. As to the kind of experiment: Cathepsin L maturation by Western blot. Format: cell-based. The settings on record: Vero cells. (In general: In western blotting, separated proteins are transferred to a membrane and probed.)
The test system of test [1] is RPE1 cells. Nature of the test: PtdIns(4,5)P2 level by flow cytometry. The settings on record: overnight. Format: cell-based. As for the experimental part:
CUGAUCAAGAU G A -3 and PIKfyve#2 siRNA 5'-
[…] -3'. siRNA oligonucleotides were purchased from Genolution, Sigma- Aldrich and Integrated DNA Technologies.
These siRNAs were transfected into the cell using lipofectamine RNAiMAX (Invitrogen, 13778150) following manufacturer ’s protocol.
RPE1 cells were treated with UNI418 at indicated concentration for over-night.
After that, the image was taken by EVOS M5000 (Thermo Fisher Scientific).
RPE1 cells were treated with UNI418 at the different concentration during the time. Live cell images were taken by Lionheart LX Automated Microscope and analyzed in Gen5 (Agilent).
RPE1 cells were treated with indicated doses of UNI418 overnight. To analyze PIP2 level by flow cytometry, trypsinized cells were fixed with 4% paraformaldehyde for 10 min at room temperature. […] Cells were washed three times with 1% BSA-PBS and incubated with the fluorescence- conjugated secondary antibody Alexa Fluor® 488 AffiniPure Goat Anti-Mouse IgG (H+L) (Jackson ImmunoResearch,111- 545- 003) for 1h at room temperature analyzed by BD Accuri C6 Plus flow cytometer (BD Biosciences). […]
PtdIns(4,5)P2 level was analyzed by flow cytometry. […] Significance was determined by Student’s t-test, **p < 0.01. b Representative flow cytometry graph for PIP2 level after indicated dose of […]
A general note: In flow cytometry, cells or beads pass a laser one at a time.

Another test has as its target PIP5K1A (Homo sapiens, UniProt Q99755). Nature of the test: SelectScreen Kinase Profiling Service (single point and 10 point titration). Type of test: biochemical. An excerpt: (§1) UNI418 has a core structure consisting of 4-quinazolinamine (Fig. 1a, green), which is often found in kinase inhibitors. […] The phosphoinositide (PI) system is a crucial regulatory mechanism in membrane trafficking and is tightly regulated through phosphorylation cascades by multiple phosphatidylinositol phosphate kinases (PIPKs)[30]. We hypothesized that UNI418 may inhibit PIPK(s) and performed PIPK profiling analysis. […] To test whether UNI418 interacts with PIP5K1C and PIKfyve, we performed a CETSA, which determines the characteristics of protein stabilization upon ligand binding to the target protein[31]. UNI418- or DMSO-treated cell lysates were incubated at different temperatures, and the presence of the target protein in the soluble fraction was analyzed by Western blotting (Fig. 1c).
(§2) Fig. 1 UNI418 specifically targets PIP5K1 and PIKfyve. a Chemical structure of UNI418. The 4-quinazolinamine core is highlighted in green. b Table of the kinase profiling analysis. Inhibition of several kinases was determined at a 1 μM concentration of UNI418 and analyzed by the SelectScreen Kinase Profiling Service (Thermo Fisher Scientific). c Cellular thermal shift assay. Ectopically expressed GFP-PIP5K1C and GFP-PIKfyve were heated to the indicated temperatures with/without UNI418, and the presence of protein in the soluble fraction was analyzed by Western blot analysis. TEXT PRINTED IN THE PICTURE: (b) UNI418: % Inhibition (mean): 11 ([ATP] Tested (μM): 10; Kinase Tested: PI4K2A (PI4K2 alpha)); % Inhibition (mean): 4 ([ATP] Tested (μM): 10; Kinase Tested: PI4K2B (PI4K2 beta)); % Inhibition (mean): -6 ([ATP] Tested (μM): 10; Kinase Tested: PI4KA (PI4K alpha)); % Inhibition (mean): 48 ([ATP] Tested (μM): Km app; Kinase Tested: PI4KB (PI4K beta)); % Inhibition (mean): 20 ([ATP] Tested (μM): 10; Kinase Tested: PIK3C2B (PI3K-C2 beta)); % Inhibition (mean): 22 ([ATP] Tested (μM): 10; Kinase Tested: PIK3C2G (PI3K-C2 gamma)); % Inhibition (mean): 4 ([ATP] Tested (μM): 100; Kinase Tested: PIK3C3 (hVPS34)); % Inhibition (mean): 8 ([ATP] Tested (μM): 10; Kinase Tested: PIK3CA/PIK3R3 (p110 alpha/p55 gamma)); % Inhibition (mean): 7 ([ATP] Tested (μM): 10; Kinase Tested: PIK3CB/PIK3R2 (p110 beta/p85 beta)); % Inhibition (mean): 9 ([ATP] Tested (μM): 10; Kinase Tested: PIP4K2A); % Inhibition (mean): 67 ([ATP] Tested (μM): 10; Kinase Tested: PIP5K1A); % Inhibition (mean): 93 ([ATP] Tested (μM): 10; Kinase Tested: PIP5K1B); % Inhibition (mean): 93 ([ATP] Tested (μM): 10; Kinase Tested: PIP5K1C); % Inhibition (mean): 100 ([ATP] Tested (μM): 100; Kinase Tested: PIKFYVE) | (b) Apilimod: % Inhibition (mean): 100 ([ATP] Tested (μM): 100; Kinase Tested: PIKFYVE) […]
(§3) Supplementary Fig. 2 UNI418 inhibits PIP5K1B/C and PIKfyve. a Inhibition graph of PIP5K1 kinases at the 10 point titration with UNI418. IC 50 value of PIP5K1 kinases was analyzed by Thermo Fisher Scientific’s SelectScreen kinase profiling service. b Kd (nM) values of PIP5K1C and PIKfyve inhibition were determined using the Eurofins kinase assay service.
(§4) (1 picture or pasted object on this page, not shown here)

The target of another test is PIP5K1C (Homo sapiens, UniProt O60331). The test is described as above. Type of test: biochemical.
Sequence of PIP5K1C (O60331 whole entry): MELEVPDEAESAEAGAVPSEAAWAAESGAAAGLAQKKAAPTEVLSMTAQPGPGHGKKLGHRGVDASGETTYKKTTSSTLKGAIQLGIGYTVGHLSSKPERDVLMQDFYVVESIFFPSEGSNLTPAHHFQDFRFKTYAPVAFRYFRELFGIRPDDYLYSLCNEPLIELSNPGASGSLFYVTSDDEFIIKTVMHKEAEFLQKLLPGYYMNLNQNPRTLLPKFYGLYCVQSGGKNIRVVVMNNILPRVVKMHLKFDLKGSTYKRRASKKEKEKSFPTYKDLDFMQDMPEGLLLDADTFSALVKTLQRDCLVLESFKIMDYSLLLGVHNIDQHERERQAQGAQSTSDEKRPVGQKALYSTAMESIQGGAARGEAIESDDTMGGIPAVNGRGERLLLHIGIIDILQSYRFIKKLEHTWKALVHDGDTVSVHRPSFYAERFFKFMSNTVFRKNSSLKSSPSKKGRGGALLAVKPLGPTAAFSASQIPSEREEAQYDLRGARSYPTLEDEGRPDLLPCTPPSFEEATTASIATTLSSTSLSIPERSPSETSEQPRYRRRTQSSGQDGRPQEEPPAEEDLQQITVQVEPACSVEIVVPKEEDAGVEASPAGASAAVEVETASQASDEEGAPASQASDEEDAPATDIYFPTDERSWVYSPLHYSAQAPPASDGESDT
Source text: as §1, §2, §3, §4

Another test concerns the target PIP5K1B (Homo sapiens, UniProt O14986). Described as above. Format: biochemical.
Source text: as §1, §2, §3, §4

A further test concerns VSV-G-pseudotyped virus. Type of test: cell-based.
In test [2] the test system is RPE1 cells. As to the kind of experiment: LAMP1 accumulation (Western blot and immunofluorescence). Type of test: cell-based.
Source text: Supplementary Fig. 9 UNI418 is not a simple lysosomotropic agent. a Western blot of LAMP1 with UNI418 and Chloroquine. GAPDH was used as a loading control. NT, not treated. b Immunofluorescence images showing accumulation of LAMP1 in RPE1 cells with the indicated concentration of Chloroquine and UNI418 treatment, and images within the white rectangular boxes are zoomed in on the right side. Scale bar, 20 µm. c The mean of intensity in individual cell was quantified. Data presented as mean ± SEMs, n >20.
Significance was determined by Student’s t-test, ***p < 0.001.
as §4

Molecules are shown by their SMILES.

Sequence of PIP5K1A (Q99755 whole entry): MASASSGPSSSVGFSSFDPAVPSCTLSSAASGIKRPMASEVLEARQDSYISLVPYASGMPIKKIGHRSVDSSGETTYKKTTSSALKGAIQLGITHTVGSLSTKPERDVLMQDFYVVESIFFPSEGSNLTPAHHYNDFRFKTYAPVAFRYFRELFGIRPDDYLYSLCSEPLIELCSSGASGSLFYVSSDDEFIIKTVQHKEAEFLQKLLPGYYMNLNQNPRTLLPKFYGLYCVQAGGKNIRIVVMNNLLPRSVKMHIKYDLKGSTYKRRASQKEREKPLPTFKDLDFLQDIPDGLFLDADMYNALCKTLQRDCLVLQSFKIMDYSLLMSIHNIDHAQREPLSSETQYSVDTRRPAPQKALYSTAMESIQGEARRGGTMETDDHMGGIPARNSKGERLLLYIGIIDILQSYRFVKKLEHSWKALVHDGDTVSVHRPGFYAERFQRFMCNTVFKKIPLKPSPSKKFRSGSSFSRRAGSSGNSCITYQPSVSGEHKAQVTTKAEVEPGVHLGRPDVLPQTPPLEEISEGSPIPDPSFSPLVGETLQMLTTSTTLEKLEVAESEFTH
Sequence of PIP5K1B (O14986 whole entry): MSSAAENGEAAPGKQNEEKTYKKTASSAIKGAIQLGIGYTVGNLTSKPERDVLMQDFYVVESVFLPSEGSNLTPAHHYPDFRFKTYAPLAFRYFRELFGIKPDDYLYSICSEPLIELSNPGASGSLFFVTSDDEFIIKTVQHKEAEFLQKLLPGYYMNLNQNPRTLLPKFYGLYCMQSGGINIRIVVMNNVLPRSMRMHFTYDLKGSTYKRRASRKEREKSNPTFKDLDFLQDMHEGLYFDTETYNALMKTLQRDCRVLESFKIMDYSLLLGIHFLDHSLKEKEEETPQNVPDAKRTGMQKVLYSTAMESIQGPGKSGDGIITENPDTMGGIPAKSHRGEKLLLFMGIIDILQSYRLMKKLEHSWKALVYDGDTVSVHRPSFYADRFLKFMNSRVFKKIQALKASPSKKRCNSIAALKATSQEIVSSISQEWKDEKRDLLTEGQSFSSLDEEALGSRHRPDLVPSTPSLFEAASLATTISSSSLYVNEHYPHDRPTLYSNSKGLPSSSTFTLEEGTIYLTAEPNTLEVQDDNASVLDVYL

Take `c1ccc(-c2cc(Nc3nc(-c4ccncc4)nc4ccccc34)n[nH]2)cc1` [UNI418, N -(5-phenyl-1 H -pyrazol-3-yl)-2-(4-pyridinyl)-4-quinazolinamine]: the “proteolytic maturation of cathepsin L” value with cathepsin L is on record as “considerably inhibited”. Further, the “levels of PtdIns(4,5)P2” value in the test on RPE1 cells [1] is on record as “reduced”. Further, the 50% inhibitory concentration (IC50) stood at 255 nM at PIP5K1A, 60.1 nM at PIP5K1C and 60.7 nM on PIP5K1B. The inhibition at 1 µM was 67% against PIP5K1A (1 μM UNI418, [ATP] 10 μM); 93% on PIP5K1C (1 μM UNI418, [ATP] 10 μM); 93% on PIP5K1B (1 μM UNI418, [ATP] 10 μM). For the same compound, the pseudotyped virus entry result with VSV-G-pseudotyped virus is “unaffected”. In the test with RPE1 cells [2], the “accumulation of LAMP1 or LAMP1-positive lysosomes” value is “did not cause the accumulation”.

As a reminder, the IC50 is the concentration that gives 50% inhibition. Low values mean greater potency, high ones weaker potency. For orientation: inhibition means the change of the read-out against control, counted positive when it falls. A higher inhibition goes with a response far below the control.
